The source of these data is ChEMBL document CHEMBL1157711, “Recent advances in the discovery of competitive protein tyrosine phosphatase 1B inhibitors for the treatment of diabetes, obesity, and cancer” (J Med Chem, 2010).

The structures appear in SMILES notation.

Data set [1] addresses T1, Tyrosine-protein phosphatase non-receptor type 1 (Homo sapiens, UniProt P18031).
T1 sequence (P18031 whole entry): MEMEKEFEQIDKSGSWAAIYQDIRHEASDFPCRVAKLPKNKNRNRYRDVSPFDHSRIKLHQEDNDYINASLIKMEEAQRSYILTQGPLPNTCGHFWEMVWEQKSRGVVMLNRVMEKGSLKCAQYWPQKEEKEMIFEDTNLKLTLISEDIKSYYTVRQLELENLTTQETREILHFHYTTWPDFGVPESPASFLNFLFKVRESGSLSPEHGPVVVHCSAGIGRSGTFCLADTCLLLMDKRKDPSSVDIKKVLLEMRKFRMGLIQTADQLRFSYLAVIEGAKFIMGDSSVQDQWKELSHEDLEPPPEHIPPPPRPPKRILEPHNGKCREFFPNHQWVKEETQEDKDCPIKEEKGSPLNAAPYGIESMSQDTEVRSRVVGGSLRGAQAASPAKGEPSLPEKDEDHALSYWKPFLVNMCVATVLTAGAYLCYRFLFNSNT
In words: Inhibition of PTP1B.

Data set [2] addresses T2, Tyrosine-protein phosphatase non-receptor type 2 (Homo sapiens, UniProt P17706).
T2 sequence (P17706 whole entry): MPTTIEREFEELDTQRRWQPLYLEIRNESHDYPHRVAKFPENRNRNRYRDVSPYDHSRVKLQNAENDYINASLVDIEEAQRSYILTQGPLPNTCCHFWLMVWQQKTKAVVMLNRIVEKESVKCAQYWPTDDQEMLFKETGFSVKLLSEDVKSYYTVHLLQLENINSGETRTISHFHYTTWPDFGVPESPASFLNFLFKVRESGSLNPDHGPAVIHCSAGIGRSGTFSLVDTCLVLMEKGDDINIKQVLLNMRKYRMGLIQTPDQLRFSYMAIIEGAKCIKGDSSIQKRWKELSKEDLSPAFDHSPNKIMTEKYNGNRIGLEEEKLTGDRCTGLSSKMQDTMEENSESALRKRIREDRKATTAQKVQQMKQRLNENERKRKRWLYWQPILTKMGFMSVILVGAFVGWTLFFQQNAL
Nature of the data set: Inhibition of TCPTP.

Data set [3] can be described thus: Permeability across human Caco-2 cell membrane. The class given is ADME, cell-based. Particulars: read-out: permeability.
A short description of data set [4]: Selectivity ratio of Ki for TCPTP to Ki for PTP1B.
Data set [5] concerns the target T1, Tyrosine-protein phosphatase non-receptor type 1. In words: Inhibition of PTP1B by competitive inhibition assay.
Data set [6] can be described thus: Selectivity ratio of IC50 for TCPTP to IC50 for PTP1B.
In data set [7] the target is Receptor-type tyrosine-protein phosphatase beta (Homo sapiens, UniProt P23467). Nature of the data set: Inhibition of human protein-tyrosine phosphatase beta.
Sequence of Receptor-type tyrosine-protein phosphatase beta (P23467 whole entry): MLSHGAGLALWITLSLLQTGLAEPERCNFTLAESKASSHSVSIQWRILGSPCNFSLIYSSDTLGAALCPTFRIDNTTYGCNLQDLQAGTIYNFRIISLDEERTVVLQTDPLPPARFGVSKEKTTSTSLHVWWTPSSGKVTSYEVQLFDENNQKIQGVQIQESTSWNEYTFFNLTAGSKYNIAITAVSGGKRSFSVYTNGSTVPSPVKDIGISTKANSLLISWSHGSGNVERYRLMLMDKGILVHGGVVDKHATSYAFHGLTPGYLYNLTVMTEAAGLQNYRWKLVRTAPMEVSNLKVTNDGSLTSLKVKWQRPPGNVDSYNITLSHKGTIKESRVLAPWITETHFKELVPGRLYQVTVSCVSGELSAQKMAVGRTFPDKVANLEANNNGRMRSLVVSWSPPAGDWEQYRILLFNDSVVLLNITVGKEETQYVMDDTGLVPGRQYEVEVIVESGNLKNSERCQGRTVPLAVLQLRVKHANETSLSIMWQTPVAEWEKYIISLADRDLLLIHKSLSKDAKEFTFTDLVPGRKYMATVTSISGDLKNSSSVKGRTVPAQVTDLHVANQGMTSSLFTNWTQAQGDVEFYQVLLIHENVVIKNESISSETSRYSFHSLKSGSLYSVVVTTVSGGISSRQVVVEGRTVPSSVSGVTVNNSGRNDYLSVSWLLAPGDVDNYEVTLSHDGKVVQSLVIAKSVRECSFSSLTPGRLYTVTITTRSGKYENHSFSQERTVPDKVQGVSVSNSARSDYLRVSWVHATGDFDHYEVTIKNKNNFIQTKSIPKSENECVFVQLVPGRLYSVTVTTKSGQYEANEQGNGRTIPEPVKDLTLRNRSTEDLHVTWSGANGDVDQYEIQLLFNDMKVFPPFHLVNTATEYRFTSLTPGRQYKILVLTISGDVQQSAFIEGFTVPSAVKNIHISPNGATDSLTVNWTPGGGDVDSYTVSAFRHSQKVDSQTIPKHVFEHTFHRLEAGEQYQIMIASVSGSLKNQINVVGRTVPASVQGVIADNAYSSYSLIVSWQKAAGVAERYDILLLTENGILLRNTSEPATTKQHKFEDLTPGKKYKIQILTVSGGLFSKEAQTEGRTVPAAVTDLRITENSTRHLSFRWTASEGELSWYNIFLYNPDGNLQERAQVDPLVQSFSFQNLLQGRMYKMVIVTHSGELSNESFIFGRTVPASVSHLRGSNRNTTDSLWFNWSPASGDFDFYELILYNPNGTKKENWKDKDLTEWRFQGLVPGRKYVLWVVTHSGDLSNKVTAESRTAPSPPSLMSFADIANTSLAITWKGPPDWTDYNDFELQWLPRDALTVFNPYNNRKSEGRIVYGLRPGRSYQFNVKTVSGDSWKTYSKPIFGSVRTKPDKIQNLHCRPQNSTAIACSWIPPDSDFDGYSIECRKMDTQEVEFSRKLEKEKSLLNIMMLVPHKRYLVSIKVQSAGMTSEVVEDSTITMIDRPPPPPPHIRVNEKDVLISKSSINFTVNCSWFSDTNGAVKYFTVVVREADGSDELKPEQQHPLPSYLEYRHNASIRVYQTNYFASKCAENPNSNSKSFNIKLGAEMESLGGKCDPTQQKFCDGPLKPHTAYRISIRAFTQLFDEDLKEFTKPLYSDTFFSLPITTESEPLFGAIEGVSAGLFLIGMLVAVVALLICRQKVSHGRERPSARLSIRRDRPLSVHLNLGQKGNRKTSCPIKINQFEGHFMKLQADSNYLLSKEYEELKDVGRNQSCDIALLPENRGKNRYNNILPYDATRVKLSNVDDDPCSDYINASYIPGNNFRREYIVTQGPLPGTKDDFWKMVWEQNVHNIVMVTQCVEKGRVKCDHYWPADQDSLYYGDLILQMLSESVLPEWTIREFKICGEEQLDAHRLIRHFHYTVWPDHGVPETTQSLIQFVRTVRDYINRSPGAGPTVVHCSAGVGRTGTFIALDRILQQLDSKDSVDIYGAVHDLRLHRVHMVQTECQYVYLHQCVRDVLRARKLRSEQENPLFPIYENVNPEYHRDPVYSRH
A further data set concerns C2C12. Nature of the data set: Augmentation of insulin-stimulated 2-deoxy-D-glucose uptake in mouse C2C12 cells at 100 uM. The data set is classed as functional.

A word on the IC50: it is the point on the concentration scale where inhibition reaches its midpoint. A lower IC50 goes with greater potency. In data set [1], `Cc1nc(-c2ccc(Cl)cc2)sc1CCc1cccc(C(O)(C(=O)O)C(F)(F)F)c1` (centres undefined) gave an IC50 of 3200 nM. By Ki is commonly meant the equilibrium dissociation constant of an inhibitor or competing ligand from its target. Read a low Ki as higher affinity. `CCc1cc(C[C@H](NC(C)=O)C(=O)NCCCCOc2cccc(O)c2C(=O)OC)ccc1N(C(=O)C(=O)O)c1ccccc1C(=O)O` came in with a Ki in data set [2] of 65 nM.

Turning to `O=S(=O)(Nc1ccc(Oc2ccc(Oc3ccc(NS(=O)(=O)C(F)(F)F)cc3)cc2)cc1)C(F)(F)F`, the IC50 in data set [1] was 2500 nM.

In data set [1], `O=S(=O)(O)C(F)(F)c1cccc(-c2ccc(-c3ccccc3)cc2)c1` registered an IC50 of 8000 nM. On the same count and under the same terms, then `Cc1ccccc1S(=O)(=O)N(Cc1ccc(C(=O)C(F)(F)P(=O)(O)O)cc1)Cc1ccc(C(=O)C(F)(F)P(=O)(O)O)cc1`, with 600 nM; and `CN(CCCCCl)P(=O)(OCc1ccc([N+](=O)[O-])o1)C(F)(F)c1ccc(CC(=O)N[C@@H](CC(=O)O)C(=O)N[C@@H](Cc2ccc(C(F)(F)P(=O)(OCc3ccc([N+](=O)[O-])o3)N(C)CCCCCl)cc2)C(=O)ON)cc1` (some centres undefined), with above 20000 nM. With `COC(=O)c1c(O)cccc1OCCCCNC(=O)[C@H](Cc1ccc(OCC(=O)O)c(O)c1)NC(C)=O`, in data set [3], the Papp is above 10 ×10⁻⁶ cm/s. Moreover, the Ratio Ki in data set [4] is 20. For `N#Cc1ccc2cc(Br)c(C(F)(F)P(=O)(O)O)cc2c1`, the concentration for half-maximal inhibition (IC50) in data set [2] stood at 120 nM. In data set [5], `COc1cc(/C=C2\SC(=S)N(c3cccc(Cl)c3)C2=O)cc([N+](=O)[O-])c1O` yielded a Ki of 1800 nM. Further, in data set [6], the Ratio IC50 was 1.3. With `O=C1CN(c2c(O)cc(CC3CCCCC3)cc2F)S(=O)(=O)C1`, in data set [1], the IC50 amounted to 14 nM. With `CCc1csc([C@H](Cc2ccc(NS(=O)(=O)O)cc2)NC(=O)[C@H](CC(C)C)C(=O)OC)n1`, the half-maximal inhibitory concentration (IC50) in data set [7] worked out at 0.3 nM; in data set [1] it was 70 nM.

As for `CS(=O)(=O)OC1C(Cl)CCCC1Cc1ccc(N2CC(=O)CS2(=O)=O)c(O)c1` (centres undefined), half-maximal inhibition in data set [1] (IC50) was put at 12.6 nM. With `COC(=O)c1c(O)cccc1OCCCCNC(=O)[C@H](Cc1ccc(OC(C(=O)O)C(=O)NC2CC2)cc1)NC(=O)OC(C)(C)C` (some centres undefined), the Ki is above 200000 nM in data set [2] and 8.4 µM in data set [1]. Besides, the Ratio Ki in data set [4] was above 23. `COC(=O)c1c(O)cccc1OC/C=C/c1cccc(-c2onc(C(=O)O)c2N)c1` displayed an IC50 in data set [2] above 30000 nM. On the same count and under the same terms, then `Cc1cc(C[C@H](NS(=O)(=O)c2ccccc2)c2nc3ccccc3[nH]2)ccc1N1CC(=O)NS1(=O)=O`, with 150 nM.

In data set [1], `COc1ccc2cc(O)c(N3CC(=O)NS3(=O)=O)cc2c1` came in with an IC50 below 30 nM. Consider `NC(=O)[C@H](Cc1ccc(C(F)(F)P(=O)(O)O)cc1)NC(=O)[C@H](CC(=O)O)NC(=O)Cc1ccc(C(F)(F)P(=O)(O)O)cc1`, for which the Ki in data set [2] was 26 nM.

With `Cc1cc(C[C@H](NS(=O)(=O)c2ccccc2)c2nc3ccccc3[nH]2)ccc1[C@@H]1CC(=O)NS1(=O)=O`, half-maximal inhibition in data set [2] (IC50) was put at 25 nM.

In the case of `O=C1C[C@@H](c2ccc(C[C@H](Nc3nc4ccccc4s3)c3nc4ccccc4[nH]3)cc2F)S(=O)(=O)N1`, it took 250 nM to reach half-maximal inhibition in data set [2] (IC50). Compound `CCC(CC)c1ccc(N(Cc2cccc(-c3ccc(COc4ccc(C[C@H](NC(C)=O)C(=O)O)cc4)cc3)c2)C(C)C)cc1` came in with an IC50 in data set [1] of 16 nM.

As for `CNC(=O)[C@@H]1Cc2ccc(NS(=O)(=O)O)cc2CN1C(=O)CCc1cccc(NS(=O)(=O)O)c1`, in data set [6], the Ratio IC50 stood at 1.9.

In the case of `Cc1cc(CC(NS(=O)(=O)c2cccc(F)c2)C2=N[C@H](CCOc3ccccc3S(C)(=O)=O)CN2)ccc1C1CC(=O)NS1(=O)=O` (some centres undefined), the IC50 in data set [2] is 25 nM; in data set [1] it was 23 nM. Moreover, the Ratio IC50 in data set [6] was determined as 1.

In data set [2], `CN(C)S(=O)(=O)c1ccc(CN(Cc2ccc(C(F)(F)P(=O)(O)O)c(Br)c2)S(=O)(=O)c2ccc(OCC(=O)O)cc2)cc1` returned an IC50 of 28 nM. In addition, the Ratio IC50 in data set [6] was determined as 1.

On to `O=C(O)C(=O)Nc1sc2c(c1C(=O)O)CCN[C@H]2CNC(=O)c1cc2cc(F)ccc2[nH]1`, for which, in the data set on C2C12, the Activity is on record as 70%. For the same compound, in data set [3], the Papp was below 1 ×10⁻⁶ cm/s.

In data set [1], `Cc1sc(-c2cccc(NC3CCN(S(=O)(=O)Cc4ccccc4)CC3)c2)cc1C1CC(=O)NS1(=O)=O` (centres undefined) returned an inhibition constant Ki of 4.3 µM.
